Results reported in patent publication US10119972B2, “Reactive labelling compounds and uses thereof” (Academia Sinica, priority 2014, dated 2018).
“Also recorded” adds a separate entry of the source.

Legend:
[1] = Absorption and fluorescence spectroscopy under simulated physiological conditions; type: physicochemical; settings: for Absorption (λmax, nm) / Stokes shift / Emission (λmax, nm) / ε (M^−1cm^−1), extinction coefficient / Φf, fluorescence quantum yield: PBS buffer containing 10% DMSO, pH 7.4; for Emission (λmax, nm): excitation at 330 nm; for ε (M^−1cm^−1), extinction coefficient: measured at 330 nm; for Φf, fluorescence quantum yield: quinine sulfate (Φf = 0.54 ± 0.03) as standard; for increase in quantum yield compared to unreacted 101: triazole product vs 101
Protocol: Formation of triazoles 111 and 112 were accompanied by a significant increase in fluorescence intensity with a large Stokes shift into a standard range for coumarin emission (FIG. 16a).
FIG. 16 describes (a) Absorption and Fluorescence emission spectra (λex=330 nm) of 101 (black), 111 (blue) and 112 (red) (45 μM, PBS buffer containing 10% DMSO, pH 7.4). (b) Time course of normalized fluorescence intensity at 435 nm (λex=330 nm) for the ligation reaction of 101 (30 μM) with N-azidoacetylmannosamine (30 μM) in PBS buffer containing 10% DMSO.

CL1-5 cells = experiment: Dual fluorescence labeling in cells (SPAAC with CuAAC), confocal microscopy; type: cell-based; settings: CL1-5 cells with Ac4ManNAl and Ac4GlcNAz; 100 μM coumOCT, 0.1 μM AzBOCEt
Protocol: A dual-labeling experiment was performed using SPAAC in combination with CuAAC for the concurrent fluorescence labeling of two different metabolically incorporated glycoconjugates. Peracetylated N-acetylmannosamine (Ac4ManNAc) and peracetylated N-acetylglucosamine (Ac4GlcNAc) were employed as the control sugars. ManNAc is converted metabolically to sialic acid that is found as a terminal monosaccharide of glycoproteins and glycolipids in cell, whereas GlcNAz is an internal monosaccharide that abundant in the N- and O-linked glycans produced in the endoplasmic reticulum and Golgi. CL1-5 cells were incubated in the presence of both alkyne-containing sugar (Ac4ManNAl) and azido-containing sugar (Ac4GlcNAz) for three days. The cells were stained by SPAAC with coumOCT (for azido sugars), followed by CuAAC with AzBOCEt^6j (for alkynyl sugars), and investigated by confocal microscopy (FIG. 24).
(A) Illustration of the cell labeling experiments using Ac4ManNAl, Ac4GlcNAz, 101 and AzBOCEt. CL1-5 cells were incubated with 100 μM of Ac4ManNAl and Ac4GlcNAz or control sugars (Ac4ManNAc and Ac4GlcNAc) for 3 days, which were treated with 100 μM of probe 101 for 0.5 h under SPAAC conditions, and then incubated with 0.1 μM of AzBOCEt for 1 h under CuAAC conditions. (B) Dual fluorescence imaging in CL1-5 cells. […]

[2] = Stability in presence of 3-mercaptopropionic acid by 1H-NMR; type: physicochemical; settings: 25 mM in CDCl3 with 3-mercaptopropionic acid (32 mM), 25° C., 24 h
Protocol: A potential problematic side reaction of cyclooctynes is the addition with proteinic or endogenous thiols to the corresponding vinyl sulfides. To test whether potential non-specific stainings of 101 and the corresponding triazole 111 may occur due to additions of the SH groups to the triple bond or double bond by proteinic or endogenous thiols, the experiment was performed by incubation of 101 and 111 with 3-mercaptopropionic acid in CDCl3 (FIGS. 25 and 26).
A solution of compound 101 and compound 111 (25 mM in CDCl3) was incubated with a solution of 3-mercaptopropionic acid (32 mM in CDCl3) at room temperature (25° C.).
FIG. 25 show ^1H-NMR spectrum in CDCl3 of compound 101 and 3-mercaptopropionic acid alone, and ^1H-NMR spectrum of compound 101 was treated with 3-mercaptopropionic acid at 25° C. for 0 h, 2 h and 24 h.

Row | SMILES | Absorption (λmax, nm) [1] [nm] | Stokes shift [1] [cm⁻¹] | Emission (λmax, nm) [1] [nm] | ε (M^−1cm^−1), extinction coefficient [1] [M⁻¹ cm⁻¹] | Φf, fluorescence quantum yield [1] | increase in quantum yield compared to unreacted 101 [1] [fold] | localization of labeled glycoconjugates (CL1-5 cells) | thiol-yne or thiol-ene addition / stability in the presence of thiols [2]
1 | O=C(Cn1nnc2c1CCCCc1cc3ccc(=O)oc3cc1-2)NC1C(O)OC(CO)[C@@H](O)C1O (stereo partly drawn) [Compound 112, N-[2-(11-Oxo-4,6,7,11-tetrahydrochromeno[7′,6′:3,4]cycloocta[1,2-d][1,2,3]triazol-3(5H)-yl)]acetamido-2-deoxy-α,β-D-mannopyranose] | 330 | 7320 | 435 | 10800 | 0.21 | 20 | – | –
2 | CCOC(=O)C1=C(C)C2=C(c3cc(N=[N+]=[N-])ccc3OC)c3c(C)c(C(=O)OCC)c(C)n3[B-](F)(F)[N+]2=C1C [Az10, 8-(5-Azido-2-methoxyphenyl)-2,6-diethoxycarbonyl-4,4-difluoro-1,3,5,7-tetramethyl-4-bora-3a,4a-diaza-s-indacene] | – | – | – | – | – | – | observed clearly on the cell surface and partially in the cytosol | –
3 | O=c1ccc2cc3c(cc2o1)-c1nnn(Cc2ccccc2)c1CCCC3 [Compound 111, 10-Benzyl-6,7,8,9-tetrahydro-cyclooctatriazolo[5,4-g]chromen-2(2H)-one] | 328 | 7500 | 435 | 12200 | 0.23 | 20 | – | inactive; also recorded: high stability
